Measurements published in the supplement of paper PMC10307832.

How the values were obtained:
Assay in all cases: relative viability (nuclei count vs DMSO), 5 days (fraction); higher = more cells survive
[1] = compound: C1=CC2=NC=CN=C2C=C1/C=C/3\C(=O)NC(=O)S3 + C[C@@H](Oc1cc(-c2cnn(C3CCNCC3)c2)cnc1N)c1c(Cl)ccc(F)c1Cl [Crizotinib] (partner 1 µM)
How it was run: (§1)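 Relative viability divides the nuclei count in treated wells by that in vehicle wells. Lung cancer cell lines were seeded in 1536-well plates, dosed by pin tool the next day, and fixed and stained after 5 days in one step with final 0.05% Triton X-100, 1% formaldehyde and 1 ug/ml Hoechst. Dosing was a single drug or a fixed anchor-drug dose plus five library-drug doses (not always all listed) in √10 steps, and values are medians of duplicate plates imaged at 4×.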

[2] = compound: C1=CC2=NC=CN=C2C=C1/C=C/3\C(=O)NC(=O)S3 + Nc1ncn([C@H]2C[C@H](O)[C@@H](CO)O2)c(=O)n1 [Decitabine] (partner 2 µM)
How it was run: as §1

[3] = compound: CCN1CCN(c2ccc(Nc3cc(N(C)C(=O)Nc4c(Cl)c(OC)cc(OC)c4Cl)ncn3)cc2)CC1 [BGJ398] + Cc1cc(Nc2cc(N3CCN(C)CC3)nc(Sc3ccc(NC(=O)C4CC4)cc3)n2)n[nH]1 [Tozasertib] (partner 0.1 µM)
How it was run: as §1

[4] = compound: CCN1CCN(c2ccc(Nc3cc(N(C)C(=O)Nc4c(Cl)c(OC)cc(OC)c4Cl)ncn3)cc2)CC1 [BGJ398] + O=C(CCCCCCC(=O)Nc1ccccc1)NO [Vorinostat] (partner 1 µM)
How it was run: as §1

| Cell Line | relative viability ([1]; first compound 0.02 µM) | relative viability ([1]; first compound 0.06325 µM) | relative viability ([1]; first compound 0.2 µM) | relative viability ([1]; first compound 0.6325 µM) | relative viability ([1]; first compound 2 µM) | relative viability ([2]; first compound 0.02 µM) | relative viability ([2]; first compound 0.06325 µM) | relative viability ([2]; first compound 0.2 µM) | relative viability ([2]; first compound 0.6325 µM) | relative viability ([2]; first compound 2 µM) | relative viability ([3]; first compound 0.01 µM) | relative viability ([3]; first compound 0.03162 µM) | relative viability ([3]; first compound 0.1 µM) | relative viability ([3]; first compound 0.3162 µM) | relative viability ([3]; first compound 1 µM) | relative viability ([4]; first compound 0.01 µM) | relative viability ([4]; first compound 0.03162 µM) | relative viability ([4]; first compound 0.1 µM) | relative viability ([4]; first compound 0.3162 µM) | relative viability ([4]; first compound 1 µM) |
| --- | --- | --- | --- | --- | --- | --- | --- | --- | --- | --- | --- | --- | --- | --- | --- | --- | --- | --- | --- | --- |
| HCC-44 | 0.721 | 0.808 | 0.807 | 0.836 | 0.575 | 0.872 | 1.07 | 0.942 | 0.961 | 0.843 | 0.77 | 0.947 | 1.07 | 1.1 | 0.698 | 1.12 | 1.14 | 1.14 | 1.1 | 1.09 |
| HCC-827 | 0.89 | 0.905 | 0.933 | 0.804 | 1.03 | 0.259 | 0.343 | 0.345 | 0.392 | 0.33 | 0.325 | – | 0.441 | 0.363 | 0.401 | 0.763 | – | 0.87 | 0.358 | 0.81 |
| NCI-H1623 | – | – | – | – | – | – | – | – | – | – | 0.427 | 0.407 | 0.448 | 0.455 | 0.447 | – | – | – | – | – |
| NCI-H2347 | 0.679 | 0.645 | 0.672 | 0.717 | 0.916 | 0.631 | 0.829 | 0.631 | 0.586 | 0.546 | 0.698 | 0.575 | 0.515 | 0.621 | 0.567 | 0.63 | 0.763 | 0.606 | 0.55 | 0.608 |
| PC-14 | 0.821 | 0.954 | 0.869 | 0.972 | 0.864 | 0.242 | 0.272 | 0.237 | 0.204 | 0.275 | 0.575 | – | 0.666 | – | 0.621 | 0.722 | 0.121 | 0.818 | – | 0.78 |
| NCI-H1651 | 0.886 | 0.677 | 0.865 | 0.825 | 0.842 | 0.56 | 0.424 | 0.651 | 0.576 | 0.552 | 0.732 | 0.629 | 0.633 | 0.575 | 0.581 | 0.473 | 0.544 | 0.554 | 0.579 | 0.405 |
| HARA | 0.973 | 1.06 | 1.09 | 1.01 | 1.21 | 0.537 | 0.587 | 0.498 | 0.614 | 0.63 | 0.0926 | 0.116 | 0.0915 | 0.0847 | 0.0857 | 0.63 | 0.51 | 0.669 | 0.598 | 0.593 |
| NCI-H1650 | 0.91 | 1.19 | 0.974 | 0.966 | 1.22 | 0.425 | 0.375 | 0.47 | 0.36 | 0.347 | 0.498 | – | 0.464 | 0.289 | 0.356 | 0.476 | 0.493 | 0.537 | 0.422 | 0.448 |
| NCI-H1395 | – | – | – | – | – | 0.637 | 0.693 | 0.74 | 0.703 | 0.651 | 0.739 | 0.789 | 0.72 | 0.624 | 0.511 | 0.754 | 0.683 | 0.534 | 0.469 | 0.495 |
| LU99A | 0.613 | 0.597 | 0.564 | 0.415 | 0.431 | 0.932 | 0.828 | 0.884 | 0.751 | 0.725 | 0.286 | 0.282 | 0.261 | 0.197 | 0.265 | 0.472 | 0.437 | 0.542 | 0.451 | 0.486 |
| NCI-H1355 | 0.865 | 1.03 | 1.1 | 1.02 | 0.976 | 0.348 | 0.353 | 0.357 | 0.367 | 0.33 | 0.57 | 0.566 | 0.455 | 0.491 | 0.538 | 0.576 | 0.626 | 0.695 | 0.607 | 0.49 |
| HCC-78 | 0.341 | 0.309 | 0.296 | 0.337 | 0.25 | 0.703 | 0.578 | 0.668 | 0.594 | 0.525 | 0.355 | 0.461 | 0.445 | 0.419 | 0.476 | 0.427 | 0.417 | 0.518 | 0.481 | 0.577 |
| NCI-H1563 | 0.842 | 0.898 | 0.86 | 0.861 | 0.831 | – | – | – | – | – | – | – | – | – | – | – | – | – | – | – |
| HCC-15 | 0.822 | 0.897 | 0.817 | 0.747 | 0.716 | 0.625 | 0.686 | 0.717 | 0.561 | 0.553 | 0.351 | 0.43 | 0.436 | 0.349 | 0.389 | 0.809 | 0.795 | 0.779 | 0.824 | 0.759 |
| EKVX | 0.933 | 0.905 | 0.975 | 0.833 | 0.898 | 0.258 | 0.399 | 0.287 | 0.337 | 0.373 | 0.387 | 0.421 | 0.431 | 0.436 | 0.389 | 0.701 | – | 0.921 | 0.691 | 0.728 |
| NCI-H2087 | 0.849 | 0.954 | 0.707 | 0.804 | 0.8 | 0.355 | 0.255 | 0.256 | 0.253 | 0.267 | 0.219 | 0.255 | 0.24 | 0.26 | 0.277 | 0.552 | 0.442 | 0.816 | 0.679 | 0.657 |
| LK-2 | 0.311 | 0.252 | 0.236 | 0.22 | 0.235 | 0.285 | 0.291 | 0.452 | 0.279 | 0.154 | 0.202 | 0.168 | 0.157 | 0.149 | 0.173 | 0.296 | 0.334 | 0.247 | 0.225 | 0.207 |
| NCI-H1437 | 0.829 | 0.901 | 0.805 | 0.917 | 1.02 | 0.548 | 0.546 | 0.588 | 0.536 | 0.617 | 0.414 | 0.418 | 0.418 | 0.4 | 0.427 | 0.954 | 0.887 | 0.794 | 0.784 | 0.821 |
